Measured values reported in a melting point compilation (Tetko et al.; mined from patent text by program, amines drawn as free bases though some values may be those of a salt).

Compound | melting point [°C]
NCC(O)C1=CC2(CCCCC2)c2ccccc21 (centres undefined) | 117
O=c1[nH]c2cc([N+](=O)[O-])ccc2c(=O)n1N1CC=C(c2ccc(Cl)cc2)CC1 | 210 to 212
FC(F)(F)c1cc(OCc2ccc(-c3ccccc3-c3nnn[nH]3)cc2)c2c(n1)CCCC2 | 218 to 219
CCCCCC1=NNC(=O)CC1 | 40
CC(C)(C)OC(=O)C[C@H](NC(=O)c1ccc(CCC(=O)NC2=NCCCN2)s1)c1ccc2c(c1)OCO2 | 130
N#Cc1ccc(N(Cc2ccc(O)c(Cl)c2)n2cnnc2)cc1-c1ccoc1 | 192 to 193
COc1ccc(C=Cc2ccccc2)c(-c2ccc(-c3cc(OC)ccc3C=Cc3ccccc3)n2-c2ccc(C)cc2)c1 | 303 to 305
CC1(CNc2ccccc2)SC2C(NC(=O)Cc3ccccc3)C(=O)N2C1C(=O)O (centres undefined) | 120
Cc1c(C=CC=O)c2c(c(C)c1OCc1ccccc1)CCC(C)(C)O2 | 89 to 99.5
COc1ccc(OC)c2c(=O)cc(C(=O)O)sc12 | 210 to 212
Cc1ccccc1-c1c(C(=O)O)oc2ccc(Cl)cc12 | 212 to 214
O=C(c1ccc(F)cc1)C1CCN(CCCn2c(=O)[nH]c3ccccc32)CC1 | 164
COC(=O)C1(OC)CC(C)C(=O)C=C1O (centres undefined) | 117 to 118
COc1ccc(N2C[C@@](C)(COC(=O)c3ccc([N+](=O)[O-])cc3)OC2=O)cc1 | 156 to 158
COc1cc(C)c(C=CC(C)=CC=C(C)C(=O)O)cc1C | 222 to 224
CC(C)(C)Nc1nc(C#N)c(C#N)nc1N | > 250
CC(=O)OCCn1nc(-c2cc(C(C)(C)C)c(O)c(C(C)(C)C)c2)c2cccnc21 | 115 to 116
CCOC(=O)C(NC(=O)OCc1ccccc1)C(=O)O (centres undefined) | 65 to 70
CC(=O)c1ccc(OC2SCC(O)C(O)C2O)cn1 (centres undefined) | 178 to 179
CCOC(=O)Cc1nccc(NC=O)n1 | 80 to 93
CC(=O)OCCc1ccc(-c2ccc(=O)[nH]n2)cc1 | 186
CC(C)(C)c1cc(N)cc(C(C)(C)C)c1O | 105 to 108
Cc1ccccc1-c1c2c(cc3ccc4c(c13)OCO4)C(=O)NC2 | 252 to 255
COC(=O)CCCNC(=O)CCCN(C(=O)c1cc(OC)c(OC)c(OC)c1)c1c(C)cccc1C | 97 to 99
C[C@H](Cc1ccc(-c2cc(F)c(C#N)c(F)c2)cc1)c1ccccc1 | 60.7 to 62.2
O=C1CCC(N2Cc3c(CNC(=S)NC4CCCCC4)cccc3C2=O)C(=O)N1 (centres undefined) | > 260
COc1ccnc(OC)c1CON=C(C)c1cc(C)cc(C)n1 | 114 to 116

Further lines, results first:

melting point [°C] | Compound
252 to 254 | Cc1cc2nc(N)[nH]c(=O)c2[nH]1
154 to 155 | CC[C@@H]1C[C@H](NC(=O)OCc2ccccc2)c2cc(C(F)(F)F)ccc2N1
153 to 154 | CCCCCC(CC(=O)Nc1cc(C(=O)O)ccc1C(C)(C)C)c1ccc(OC)cc1OC (centres undefined)
132 to 133 | CC(C)(Nc1ccccc1[N+](=O)[O-])C(=O)O
208 to 210 | CCOC(=O)COc1ccccc1C(=O)Nc1ccc(O)cc1
148 to 150 | CN(C)C(=O)c1csc(N(C)CC#CI)n1
> 260 | COc1ccc2cc3[nH]cc(C#N)c(=O)c3cc2c1
108 | CCCc1cc(-c2ccccc2)ccc1C(=O)O
132 to 137 | NCC1CCCN(c2ncc3ncnc(Nc4ccc(F)c(Cl)c4)c3n2)C1 (centres undefined)
96 to 98 | CN1CCC(c2nn(CCCO)c3ccccc23)CC1
265 to 268 | O=C1Nc2cc(CN3CCN(c4ccc(Cl)cc4)CC3)cnc2N2CCC[C@@H]12
83 to 84 | Cc1cn([C@H]2CC(N=[N+]=[N-])[C@@H](COC(=O)C(C)(C)CC(=O)N[C@@H](Cc3ccccc3)[C@H](O)C(=O)N3CSC[C@H]3C(=O)NC(C)(C)C)O2)c(=O)[nH]c1=O (some centres undefined)
247 to 248 | CN(C)c1ccc(C(=O)Nc2cn3cc(-n4ccnc4)ccc3n2)cc1
164 to 167 | CC(C)(C)c1cc(CCC(=O)NCCNc2cccc(Cl)c2C#N)cc(C(C)(C)C)c1O
188 to 189 | O=C(CCl)Nc1c(Cl)cccc1SSc1cccc(Cl)c1NC(=O)CCl
85 to 86 | CCCCCCCCCCOc1ccc(-c2ccc(OCCCCCCCCCC)c(OCCCCCCCCCC)c2)cc1OCCCCCCCCCC
202 to 204 | O=c1cc(-c2ccc(Cl)cc2)sc(N2CCOCC2)c1
240 to 243 | O=C(Nc1ccccc1C(c1ccc(O)cc1)c1ccc(O)cc1)c1cccs1
124 | COC1=Cc2ccccc2Nc2ccccc21
168 to 169 | C(=Nc1c2c(nc3ccccc13)CCCC2)c1ccccc1
142 to 144 | COc1ccccc1C(=O)CN1c2nc(-c3ccncc3)cc(=O)n2CCC1c1ccccc1 (centres undefined)
229 | CC1=C(C(=O)OC(C)C)C(c2cccc([N+](=O)[O-])c2)c2c(nc(N3CCOCC3)nc2N2CCOCC2)N1 (centres undefined)
